Square brackets hold non-standard residues; d marks the D form. Peptide text beside a SMILES is read from it. Tyr(3-NO2) = N[C@@H](Cc1ccc(O)c([N+](=O)[O-])c1)C(=O)O
Assays:
Trypsin [1] = target: T1, Trypsin (Sus scrofa, UniProt P00761); assay: Trypsin cleavage of C-terminal quantification tag -SA-nitroTyr-G from peptides, LC-MS with UV detection at 350 nm; type: biochemical; conditions: for Percent Cleavage of Tag [by UV at 350 nm]: after reduction and alkylation, trypsin enzyme/substrate 1:50 over night at RT
T1 construct: purchased Promega Corporation V511
Experimental: 23 peptides carrying the C-terminal quantification-tag-SA-nitroTyr-G-OH (SEQ ID NO:2) were synthesized by Fmoc-based solid phase peptide synthesis and purified by HPLC. Each peptide was subjected to the following trypsin cleavage protocol:
(§1) Trypsin Activation: Trypsin (20 μg, sequencing grade modified trypsin, Promega Corporation, Madison, Wis., USA, catalogue no. V511, specific activity 16.965 u/mg) was dissolved in Trypsin resuspension buffer (200 μL, Promega, catalogue no. V542A, ingredient 50 mM acetic acid) and incubated for 15 min at 37° C.
(§2) Reduction and alkylation: The peptide (approx. 0.05 mg) was dissolved in 1 M urea and 100 mM fresh ammonium hydrogen carbonate (300 μL). TCEP (Tris(2-carboxyethyl) phosphine hydrochloride, 0.2 M, 7.5 μL, final concentration 5 mM) was added and the solution incubated at 37° C. for 1 h. After addition of iodoacetamide (0.5 M, 6.0 μL, final concentration 10 mM) the solution was incubated at RT in the dark for another 30 min. Digestion: The sample was digested with activated Trypsin solution (10 μL per well, 1.0 μg, resulting enzyme/substrate ratio 1:50) over night at RT. To stop the digestion, HCl (2 M, 8 μL final concentration 50 mM) and TFA (3.2 μL, final concentration 1%, pH<2) were added. Finally, the sample was analyzed by LC-MS at 350 nm.

Trypsin [2] = target: T1, Trypsin; assay: Trypsin cleavage of N-terminal quantification tag Ac-nitroTyr-SGK- from peptides, LC-MS with UV detection at 350 nm; type: biochemical; conditions: for Kusebauch 24 h, RT: Percent Cleavage of Tag [by UV350 - Peptide-Tag vs. Tag]: trypsin protocol of example 9, 24 h; for cleavage efficiency in words: trypsin
Experimental: as §1, §2
38 peptides carrying the N-terminal quantification-tag Ac-nitroTyr-SGK-(SEQ ID NO:32) were synthesized by SPOT synthesis (Table 3). The peptide sequences are based on two different amino acid sequences, which in each case contain 19 different amino acids N-terminally attached to lysine (the 20 naturally occurring amino acids except cysteine).
All peptides were subjected to the same trypsin cleavage protocol as described in example 9. It is apparent that the quantification tag is efficiently cleaved (>99%) in nearly all cases.

T1 sequence (P00761 9-231): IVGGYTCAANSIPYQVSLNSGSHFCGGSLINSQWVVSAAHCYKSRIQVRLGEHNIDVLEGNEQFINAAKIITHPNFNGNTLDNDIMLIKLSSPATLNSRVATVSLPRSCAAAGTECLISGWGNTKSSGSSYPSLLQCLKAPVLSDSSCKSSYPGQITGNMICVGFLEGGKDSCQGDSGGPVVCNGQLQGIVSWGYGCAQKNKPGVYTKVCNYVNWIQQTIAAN

Structure (SMILES): CC[C@H](C)[C@H](NC(=O)[C@H](Cc1ccccc1)NC(=O)[C@H](Cc1ccc(O)cc1)NC(=O)[C@H](Cc1c[nH]cn1)NC(=O)[C@@H](NC(=O)[C@H](CCSC)NC(=O)[C@H](CCCCN)NC(=O)CNC(=O)[C@H](CO)NC(=O)[C@H](Cc1ccc(O)c([N+](=O)[O-])c1)NC(C)=O)[C@@H](C)O)C(=O)N[C@@H](CC(=O)O)C(=O)N[C@@H](CC(C)C)C(=O)N[C@@H](CC(N)=O)C(=O)N[C@@H](CCCCN)C(=O)O [Peptide 11, Ac-nitroTyr-SGKMTHYFIDLN-K-OH] (Ac-[Tyr(3-NO2)]SGKMTHYFIDLNK-OH)
- Percent Cleavage of Tag [by UV at 350 nm] (Trypsin [1]): 100%
- Kusebauch 24 h, RT: Percent Cleavage of Tag [by UV350 - Peptide-Tag vs. Tag] (Trypsin [2]): 100.0%

Structure (SMILES): CC[C@H](C)[C@H](NC(=O)[C@H](Cc1ccccc1)NC(=O)[C@H](Cc1ccc(O)cc1)NC(=O)[C@H](Cc1c[nH]cn1)NC(=O)[C@@H](NC(=O)[C@H](CC(N)=O)NC(=O)[C@H](CCCCN)NC(=O)CNC(=O)[C@H](CO)NC(=O)[C@H](Cc1ccc(O)c([N+](=O)[O-])c1)NC(C)=O)[C@@H](C)O)C(=O)N[C@@H](CC(=O)O)C(=O)N[C@@H](CC(C)C)C(=O)N[C@@H](CC(N)=O)C(=O)N[C@@H](CCCCN)C(=O)O [Peptide 12, Ac-nitroTyr-SGKNTHYFIDLN-K-OH] (Ac-[Tyr(3-NO2)]SGKNTHYFIDLNK-OH)
- Percent Cleavage of Tag [by UV at 350 nm] (Trypsin [1]): 100%
- Kusebauch 24 h, RT: Percent Cleavage of Tag [by UV350 - Peptide-Tag vs. Tag] (Trypsin [2]): 100.0%

Structure (SMILES): CC[C@H](C)[C@H](NC(=O)[C@H](Cc1ccccc1)NC(=O)[C@H](Cc1ccc(O)cc1)NC(=O)[C@H](Cc1c[nH]cn1)NC(=O)[C@@H](NC(=O)[C@@H]1CCCN1C(=O)[C@H](CCCCN)NC(=O)CNC(=O)[C@H](CO)NC(=O)[C@H](Cc1ccc(O)c([N+](=O)[O-])c1)NC(C)=O)[C@@H](C)O)C(=O)N[C@@H](CC(=O)O)C(=O)N[C@@H](CC(C)C)C(=O)N[C@@H](CC(N)=O)C(=O)N[C@@H](CCCCN)C(=O)O [Peptide 13, Ac-nitroTyr-SGKPTHYFIDLN-K-OH] (Ac-[Tyr(3-NO2)]SGKPTHYFIDLNK-OH)
- Percent Cleavage of Tag [by UV at 350 nm] (Trypsin [1]): 99.4%
- cleavage efficiency in words (Trypsin [2]): not efficiently cleaved
- Kusebauch 24 h, RT: Percent Cleavage of Tag [by UV350 - Peptide-Tag vs. Tag] (Trypsin [2]): 37.0%

Structure (SMILES): CC[C@H](C)[C@H](NC(=O)[C@H](Cc1ccccc1)NC(=O)[C@H](Cc1ccc(O)cc1)NC(=O)[C@H](Cc1c[nH]cn1)NC(=O)[C@@H](NC(=O)[C@H](CCC(N)=O)NC(=O)[C@H](CCCCN)NC(=O)CNC(=O)[C@H](CO)NC(=O)[C@H](Cc1ccc(O)c([N+](=O)[O-])c1)NC(C)=O)[C@@H](C)O)C(=O)N[C@@H](CC(=O)O)C(=O)N[C@@H](CC(C)C)C(=O)N[C@@H](CC(N)=O)C(=O)N[C@@H](CCCCN)C(=O)O [Peptide 14, Ac-nitroTyr-SGKQTHYFIDLN-K-OH] (Ac-[Tyr(3-NO2)]SGKQTHYFIDLNK-OH)
- Percent Cleavage of Tag [by UV at 350 nm] (Trypsin [1]): 99.6%
- Kusebauch 24 h, RT: Percent Cleavage of Tag [by UV350 - Peptide-Tag vs. Tag] (Trypsin [2]): 100.0%

Structure (SMILES): CC[C@H](C)[C@H](NC(=O)[C@H](Cc1ccccc1)NC(=O)[C@H](Cc1ccc(O)cc1)NC(=O)[C@H](Cc1c[nH]cn1)NC(=O)[C@@H](NC(=O)[C@H](CCCNC(=N)N)NC(=O)[C@H](CCCCN)NC(=O)CNC(=O)[C@H](CO)NC(=O)[C@H](Cc1ccc(O)c([N+](=O)[O-])c1)NC(C)=O)[C@@H](C)O)C(=O)N[C@@H](CC(=O)O)C(=O)N[C@@H](CC(C)C)C(=O)N[C@@H](CC(N)=O)C(=O)N[C@@H](CCCCN)C(=O)O [Peptide 15, Ac-nitroTyr-SGKRTHYFIDLN-K-OH] (Ac-[Tyr(3-NO2)]SGKRTHYFIDLNK-OH)
- Percent Cleavage of Tag [by UV at 350 nm] (Trypsin [1]): 100%
- cleavage efficiency in words (Trypsin [2]): good cleavage efficiencies
- Kusebauch 24 h, RT: Percent Cleavage of Tag [by UV350 - Peptide-Tag vs. Tag] (Trypsin [2]): 100.0%

Structure (SMILES): CC[C@H](C)[C@H](NC(=O)[C@H](Cc1ccccc1)NC(=O)[C@H](Cc1ccc(O)cc1)NC(=O)[C@H](Cc1c[nH]cn1)NC(=O)[C@@H](NC(=O)[C@H](CO)NC(=O)[C@H](CCCCN)NC(=O)CNC(=O)[C@H](CO)NC(=O)[C@H](Cc1ccc(O)c([N+](=O)[O-])c1)NC(C)=O)[C@@H](C)O)C(=O)N[C@@H](CC(=O)O)C(=O)N[C@@H](CC(C)C)C(=O)N[C@@H](CC(N)=O)C(=O)N[C@@H](CCCCN)C(=O)O [Peptide 16, Ac-nitroTyr-SGKSTHYFIDLN-K-OH] (Ac-[Tyr(3-NO2)]SGKSTHYFIDLNK-OH)
- Percent Cleavage of Tag [by UV at 350 nm] (Trypsin [1]): 100%
- Kusebauch 24 h, RT: Percent Cleavage of Tag [by UV350 - Peptide-Tag vs. Tag] (Trypsin [2]): 100.0%

Structure (SMILES): CC[C@H](C)[C@H](NC(=O)[C@H](Cc1ccccc1)NC(=O)[C@H](Cc1ccc(O)cc1)NC(=O)[C@H](Cc1c[nH]cn1)NC(=O)[C@@H](NC(=O)[C@@H](NC(=O)[C@H](CCCCN)NC(=O)CNC(=O)[C@H](CO)NC(=O)[C@H](Cc1ccc(O)c([N+](=O)[O-])c1)NC(C)=O)[C@@H](C)O)[C@@H](C)O)C(=O)N[C@@H](CC(=O)O)C(=O)N[C@@H](CC(C)C)C(=O)N[C@@H](CC(N)=O)C(=O)N[C@@H](CCCCN)C(=O)O [Peptide 17, Ac-nitroTyr-SGKTTHYFIDLN-K-OH] (Ac-[Tyr(3-NO2)]SGKTTHYFIDLNK-OH)
- Percent Cleavage of Tag [by UV at 350 nm] (Trypsin [1]): 100%
- Kusebauch 24 h, RT: Percent Cleavage of Tag [by UV350 - Peptide-Tag vs. Tag] (Trypsin [2]): 100.0%

Structure (SMILES): CC[C@H](C)[C@H](NC(=O)[C@H](Cc1ccccc1)NC(=O)[C@H](Cc1ccc(O)cc1)NC(=O)[C@H](Cc1c[nH]cn1)NC(=O)[C@@H](NC(=O)[C@@H](NC(=O)[C@H](CCCCN)NC(=O)CNC(=O)[C@H](CO)NC(=O)[C@H](Cc1ccc(O)c([N+](=O)[O-])c1)NC(C)=O)C(C)C)[C@@H](C)O)C(=O)N[C@@H](CC(=O)O)C(=O)N[C@@H](CC(C)C)C(=O)N[C@@H](CC(N)=O)C(=O)N[C@@H](CCCCN)C(=O)O [Peptide 18, Ac-nitroTyr-SGKVTHYFIDLN-K-OH] (Ac-[Tyr(3-NO2)]SGKVTHYFIDLNK-OH)
- Percent Cleavage of Tag [by UV at 350 nm] (Trypsin [1]): 100%
- Kusebauch 24 h, RT: Percent Cleavage of Tag [by UV350 - Peptide-Tag vs. Tag] (Trypsin [2]): 100.0%

Structure (SMILES): CC[C@H](C)[C@H](NC(=O)[C@H](Cc1ccccc1)NC(=O)[C@H](Cc1ccc(O)cc1)NC(=O)[C@H](Cc1c[nH]cn1)NC(=O)[C@@H](NC(=O)[C@H](Cc1c[nH]c2ccccc12)NC(=O)[C@H](CCCCN)NC(=O)CNC(=O)[C@H](CO)NC(=O)[C@H](Cc1ccc(O)c([N+](=O)[O-])c1)NC(C)=O)[C@@H](C)O)C(=O)N[C@@H](CC(=O)O)C(=O)N[C@@H](CC(C)C)C(=O)N[C@@H](CC(N)=O)C(=O)N[C@@H](CCCCN)C(=O)O [Peptide 19, Ac-nitroTyr-SGKWTHYFIDLN-K-OH] (Ac-[Tyr(3-NO2)]SGKWTHYFIDLNK-OH)
- Percent Cleavage of Tag [by UV at 350 nm] (Trypsin [1]): 100%
- Kusebauch 24 h, RT: Percent Cleavage of Tag [by UV350 - Peptide-Tag vs. Tag] (Trypsin [2]): 100.0%

Structure (SMILES): CC[C@H](C)[C@H](NC(=O)[C@H](Cc1ccccc1)NC(=O)[C@H](Cc1ccc(O)cc1)NC(=O)[C@H](Cc1c[nH]cn1)NC(=O)[C@@H](NC(=O)[C@H](Cc1ccc(O)cc1)NC(=O)[C@H](CCCCN)NC(=O)CNC(=O)[C@H](CO)NC(=O)[C@H](Cc1ccc(O)c([N+](=O)[O-])c1)NC(C)=O)[C@@H](C)O)C(=O)N[C@@H](CC(=O)O)C(=O)N[C@@H](CC(C)C)C(=O)N[C@@H](CC(N)=O)C(=O)N[C@@H](CCCCN)C(=O)O [Peptide 20, Ac-nitroTyr-SGKYTHYFIDLN-K-OH] (Ac-[Tyr(3-NO2)]SGKYTHYFIDLNK-OH)
- Percent Cleavage of Tag [by UV at 350 nm] (Trypsin [1]): 74.7%
- cleavage efficiency (LC-MS and UV detection at 350 nm) (Trypsin [1]; trypsin over night at RT): 75%
- Kusebauch 24 h, RT: Percent Cleavage of Tag [by UV350 - Peptide-Tag vs. Tag] (Trypsin [2]): 100.0%

Structure (SMILES): CC(=O)N[C@@H](Cc1ccc(O)c([N+](=O)[O-])c1)C(=O)N[C@@H](CO)C(=O)NCC(=O)N[C@@H](CCCCN)C(=O)N[C@@H](C)C(=O)N[C@H](C(=O)N[C@@H](C)C(=O)N[C@@H](CC(C)C)C(=O)N[C@@H](CO)C(=O)N[C@@H](CC(C)C)C(=O)N[C@@H](CC(=O)O)C(=O)N[C@@H](CC(=O)O)C(=O)N[C@H](C(=O)N[C@@H](CCCCN)C(=O)O)C(C)C)C(C)C [Peptide 21, Ac-nitroTyr-SGKAVALSLDDV-K-OH] (Ac-[Tyr(3-NO2)]SGKAVALSLDDVK-OH)
- Percent Cleavage of Tag [by UV at 350 nm] (Trypsin [1]): 100%
- Kusebauch 24 h, RT: Percent Cleavage of Tag [by UV350 - Peptide-Tag vs. Tag] (Trypsin [2]): 100.0%

Structure (SMILES): CC(=O)N[C@@H](Cc1ccc(O)c([N+](=O)[O-])c1)C(=O)N[C@@H](CO)C(=O)NCC(=O)N[C@@H](CCCCN)C(=O)N[C@@H](CC(=O)O)C(=O)N[C@H](C(=O)N[C@@H](C)C(=O)N[C@@H](CC(C)C)C(=O)N[C@@H](CO)C(=O)N[C@@H](CC(C)C)C(=O)N[C@@H](CC(=O)O)C(=O)N[C@@H](CC(=O)O)C(=O)N[C@H](C(=O)N[C@@H](CCCCN)C(=O)O)C(C)C)C(C)C [Peptide 23, Ac-nitroTyr-SGKDVALSLDDV-K-OH] (Ac-[Tyr(3-NO2)]SGKDVALSLDDVK-OH)
- Percent Cleavage of Tag [by UV at 350 nm] (Trypsin [1]): 100%
- cleavage efficiency in words (Trypsin [2]): not efficiently cleaved
- Kusebauch 24 h, RT: Percent Cleavage of Tag [by UV350 - Peptide-Tag vs. Tag] (Trypsin [2]): 59.2%

From US20160223562A1, “Method for Determining the Concentration of a Peptide” (JPT Peptide Technologies GmbH, priority 2010, published 2016)
